Key:
[1] = target: Norepinephrine transporter (Rattus norvegicus, UniProt Q9WTR4); assay: Compound has been evaluated for its affinity towards Norepinephrine transporter by displacing the radio isotope [3H]nisoxetine from rat forebrain
[2] = target: Sodium-dependent dopamine transporter (Rattus norvegicus, UniProt P23977); assay: Displacement of [3H]GBR-12935 from rat forebrain Dopamine transporter
[3] = target: Sodium-dependent serotonin transporter (Rattus norvegicus, UniProt P31652); assay: Affinity for Serotonin transporter by displacing [3H]paroxetine from rat forebrain
Chain of Sodium-dependent serotonin transporter (P31652 whole entry): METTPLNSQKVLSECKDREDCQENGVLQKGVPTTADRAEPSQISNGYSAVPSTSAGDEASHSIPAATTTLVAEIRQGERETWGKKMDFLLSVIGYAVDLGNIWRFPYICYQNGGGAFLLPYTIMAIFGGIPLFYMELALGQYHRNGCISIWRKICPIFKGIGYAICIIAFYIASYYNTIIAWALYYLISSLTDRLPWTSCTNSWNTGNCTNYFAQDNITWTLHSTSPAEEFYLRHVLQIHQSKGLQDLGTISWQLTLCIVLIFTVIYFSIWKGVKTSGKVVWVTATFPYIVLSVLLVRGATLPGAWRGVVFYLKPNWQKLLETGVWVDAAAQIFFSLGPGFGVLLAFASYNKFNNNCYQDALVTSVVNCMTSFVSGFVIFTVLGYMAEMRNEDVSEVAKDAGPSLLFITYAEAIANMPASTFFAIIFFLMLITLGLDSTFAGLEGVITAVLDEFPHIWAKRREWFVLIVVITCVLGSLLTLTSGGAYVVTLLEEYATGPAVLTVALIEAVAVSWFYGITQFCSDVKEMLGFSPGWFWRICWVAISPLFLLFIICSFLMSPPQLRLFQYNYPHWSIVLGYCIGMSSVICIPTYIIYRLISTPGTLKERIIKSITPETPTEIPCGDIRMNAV

Chain of Norepinephrine transporter (Q9WTR4 whole entry): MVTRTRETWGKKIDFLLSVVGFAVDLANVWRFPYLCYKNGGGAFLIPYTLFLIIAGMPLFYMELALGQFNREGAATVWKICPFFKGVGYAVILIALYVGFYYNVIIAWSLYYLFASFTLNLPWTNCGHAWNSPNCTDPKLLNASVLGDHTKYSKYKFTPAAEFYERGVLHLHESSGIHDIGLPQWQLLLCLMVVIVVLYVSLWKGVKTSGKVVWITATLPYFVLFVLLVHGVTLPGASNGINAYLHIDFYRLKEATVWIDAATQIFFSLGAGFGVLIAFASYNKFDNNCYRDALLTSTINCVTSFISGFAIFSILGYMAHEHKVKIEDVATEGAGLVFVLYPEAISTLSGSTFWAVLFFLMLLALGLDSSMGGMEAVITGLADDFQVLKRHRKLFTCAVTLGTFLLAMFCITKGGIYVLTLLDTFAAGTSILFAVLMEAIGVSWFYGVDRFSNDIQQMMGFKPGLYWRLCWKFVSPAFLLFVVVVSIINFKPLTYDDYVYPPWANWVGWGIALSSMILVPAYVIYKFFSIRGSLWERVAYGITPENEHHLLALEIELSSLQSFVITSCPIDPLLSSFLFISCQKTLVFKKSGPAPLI
Chain of Sodium-dependent dopamine transporter (P23977 whole entry): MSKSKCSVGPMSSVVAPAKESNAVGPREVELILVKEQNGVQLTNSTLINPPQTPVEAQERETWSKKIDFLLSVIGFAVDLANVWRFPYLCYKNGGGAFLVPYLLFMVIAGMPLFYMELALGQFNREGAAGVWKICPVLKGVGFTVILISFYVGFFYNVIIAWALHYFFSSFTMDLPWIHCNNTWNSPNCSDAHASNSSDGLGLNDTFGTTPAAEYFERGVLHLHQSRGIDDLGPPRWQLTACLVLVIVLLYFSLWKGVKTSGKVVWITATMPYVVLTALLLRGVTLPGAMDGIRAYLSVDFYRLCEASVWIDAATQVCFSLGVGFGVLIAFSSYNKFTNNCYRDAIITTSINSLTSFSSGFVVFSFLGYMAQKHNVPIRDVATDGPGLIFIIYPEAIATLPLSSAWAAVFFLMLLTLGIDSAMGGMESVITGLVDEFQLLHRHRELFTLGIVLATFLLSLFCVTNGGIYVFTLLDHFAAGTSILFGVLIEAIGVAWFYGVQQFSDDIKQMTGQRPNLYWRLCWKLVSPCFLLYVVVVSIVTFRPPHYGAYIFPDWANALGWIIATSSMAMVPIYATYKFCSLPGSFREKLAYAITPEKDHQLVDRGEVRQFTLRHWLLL

Q: Which Ki [1] does the source give for `COC(=O)C1C(c2ccc(-c3ccc(OC)cc3)cc2)CC2CCC1N2C` (centres undefined) here?
A: 0.352 µM

Q: Which results are given for `COC(=O)[C@@H]1C2CC[C@H](C[C@@H]1c1ccc(I)cc1)N2C`?
A: Ki [2]: 0.00096 µM; Ki [3]: 0.00046 µM; Ki [1]: 0.0028 µM

Q: How did the Ki [1] turn out when `COC(=O)C1C(c2ccc(-c3ccccc3OC)cc2)CC2CCC1N2C` (centres undefined) was run?
A: 10 µM

Q: Which Ki [1] does the source give for `COC(=O)C1C(c2ccc(-c3ccc(C(C)=O)cc3)cc2)CC2CCC1N2C` (centres undefined) here?
A: 0.754 µM

Q: With `COC(=O)C1C(c2ccc(-c3ccccc3C(C)=O)cc2)CC2CCC1N2C` (centres undefined) as the molecule, how does the Ki [1] read?
A: > 20 µM

Q: How did the Ki [1] turn out when `COC(=O)C1C(c2ccc(-c3cccc([N+](=O)[O-])c3)cc2)CC2CCC1N2C` (centres undefined) was run?
A: 0.963 µM

Q: With `COC(=O)C1C(c2ccc(-c3ccccc3[N+](=O)[O-])cc2)CC2CCC1N2C` (centres undefined) as the molecule, how does the Ki [2] read?
A: > 3 µM

Q: And the Ki [3]?
A: > 3 µM

Q: And the Ki [1]?
A: > 3 µM

Q: `COC(=O)C1C(c2ccc(-c3ccc([N+](=O)[O-])cc3)cc2)CC2CCC1N2C` (centres undefined) was tested. Which Ki [1] did it give?
A: 0.37 µM

Q: For `COC(=O)C1C(c2ccc(-c3cccc(C(C)=O)c3)cc2)CC2CCC1N2C` (centres undefined), which Ki [1] is on record?
A: > 50 µM

Q: With `COC(=O)C1C(c2ccc(-c3cccc(OC)c3)cc2)CC2CCC1N2C` (centres undefined) as the molecule, how does the Ki [1] read?
A: > 3 µM
